The source made the active and inactive calls. The calls are words filed in the database; no cut-off is given here.
Assays:
[1] = test system: HCT-116; experiment: Antiproliferative activity against human HCT-116 cells expressing PIK3CA with H1047R mutation assessed as reduction in cell viability incubated for 24 to 48 hrs by CCK-8 assay; assay type: functional, cell-based
[2] = test system: 786-0; experiment: Antiproliferative activity against human 786-0 cells assessed as reduction in cell viability at 10 uM incubated for 24 to 48 hrs by CCK-8 assay; assay type: functional, cell-based; conditions: time lower […], time upper 48.0 hrs
[3] = target: Cytochrome P450 2C19 (Homo sapiens, UniProt P33261); experiment: Inhibition of CYP2C19 in human liver microsomes using omeprazole as substrate pre-incubated for 30 mins followed by substrate addition and measured after 15 mins in presence of NADPH by LC/MS analysis; assay type: ADME, Microsome
[4] = target: Cytochrome P450 3A4 (Homo sapiens, UniProt P08684); experiment: Inhibition of CYP3A4 in human liver microsomes using midazolam as substrate pre-incubated for 30 mins followed by substrate addition and measured after 15 mins in presence of NADPH by LC/MS analysis; assay type: ADME, Microsome
[5] = test system: 5637; experiment: Antiproliferative activity against human 5637 cells assessed as reduction in cell viability at 10 uM incubated for 24 to 48 hrs by CCK-8 assay; assay type: functional, cell-based; conditions: time lower […], time upper 48.0 hrs
[6] = test system: HEK-293T; experiment: Cytotoxicity against human HEK293T cells assessed as reduction in cell viability at 10 uM incubated for 24 to 48 hrs by CCK-8 assay; assay type: toxicity, cell-based; conditions: time 24-48 hrs
[7] = test system: MDA-MB-231; experiment: Antiproliferative activity against human MDA-MB-231 cells assessed as reduction in cell viability incubated for 24 to 48 hrs by CCK-8 assay; assay type: functional, cell-based
[8] = Metabolic stability in Sprague-Dawley rat liver microsomes assessed as compound remaining at 5 ug/ml incubated for 1 hr in presence of NADPH by LC-MS/MS analysis; assay type: ADME, Microsome; conditions: at 5 µg/mL, read-out: Stability
[9] = target: Cytochrome P450 2C9 (Homo sapiens, UniProt P11712); experiment: Inhibition of CYP2C9 in human liver microsomes using tolbutamide as substrate pre-incubated for 30 mins followed by substrate addition and measured after 15 mins in presence of NADPH by LC/MS analysis; assay type: ADME, Microsome
[10] = test system: A673; experiment: Antiproliferative activity against human A673 cells assessed as reduction in cell viability at 10 uM incubated for 24 to 48 hrs by CCK-8 assay; assay type: functional, cell-based; conditions: time lower […], time upper 48.0 hrs
[11] = test system: HCT-116; experiment: Inhibition of cell migration human HCT-116 cells incubated for 48 hrs by crystal violet staining based transwell assay; assay type: functional; conditions: dose 3-12 µM
[12] = Half life in Sprague-Dawley rat at 5 mg/kg, iv measured upto 24 hrs by LC-MS analysis; assay type: ADME, organism-based; conditions: in vivo
[13] = test system: HCT-116; experiment: Induction of cell cycle arrest in human HCT-116 cells assessed as decrease in accumulation of cells at G2/M phase at 3 to 12 uM incubated for 48 hrs by PI staining based flow cytometry analysis (reference value: 16.5 %); assay type: functional; design: scale not given: the % may be the effect or the level left; conditions: dose 3-12 µM
[14] = test system: HCT-116; experiment: Inhibition of cell invasion human HCT-116 cells incubated for 48 hrs by crystal violet staining based transwell assay; assay type: functional; conditions: dose 3-12 µM
[15] = test system: L02; experiment: Cytotoxicity activity against human L02 cells assessed as reduction in cell viability at 10 uM incubated for 24 to 48 hrs by CCK-8 assay; assay type: toxicity, cell-based; conditions: l02, 10 µM, time 24-48 hrs
[16] = test system: A-375; experiment: Antiproliferative activity against human A-375 cells assessed as reduction in cell viability at 10 uM incubated for 24 to 48 hrs by CCK-8 assay; assay type: functional, cell-based; conditions: time lower […], time upper 48.0 hrs
[17] = test system: MKN-45; experiment: Antiproliferative activity against human MKN-45 cells assessed as reduction in cell viability at 10 uM incubated for 24 to 48 hrs by CCK-8 assay; assay type: functional, cell-based; conditions: time lower […], time upper 48.0 hrs
[18] = Metabolic stability in artificial gastrointestinal fluid assessed as compound remaining measured upto 8 hrs by LC-MS/MS analysis; assay type: ADME
[19] = target: Serine/threonine-protein kinase mTOR (Homo sapiens, UniProt P42345); experiment: Inhibition of mTOR (unknown origin) by lance ultra assay
[20] = test system: HCT-116; experiment: Induction of cell cycle arrest in human HCT-116 cells assessed as decrease in accumulation of cells at S phase at 3 to 12 uM incubated for 48 hrs by PI staining based flow cytometry analysis (reference value: 46.9 %); assay type: functional; design: scale not given: the % may be the effect or the level left; conditions: dose 3-12 µM
[21] = target: T1, Phosphatidylinositol 4,5-bisphosphate 3-kinase catalytic subunit delta isoform (Homo sapiens, UniProt O00329); experiment: Inhibition of PI3Kdelta (unknown origin) by ADP-Glo luminescent kinase assay
T1 sequence (O00329 whole entry): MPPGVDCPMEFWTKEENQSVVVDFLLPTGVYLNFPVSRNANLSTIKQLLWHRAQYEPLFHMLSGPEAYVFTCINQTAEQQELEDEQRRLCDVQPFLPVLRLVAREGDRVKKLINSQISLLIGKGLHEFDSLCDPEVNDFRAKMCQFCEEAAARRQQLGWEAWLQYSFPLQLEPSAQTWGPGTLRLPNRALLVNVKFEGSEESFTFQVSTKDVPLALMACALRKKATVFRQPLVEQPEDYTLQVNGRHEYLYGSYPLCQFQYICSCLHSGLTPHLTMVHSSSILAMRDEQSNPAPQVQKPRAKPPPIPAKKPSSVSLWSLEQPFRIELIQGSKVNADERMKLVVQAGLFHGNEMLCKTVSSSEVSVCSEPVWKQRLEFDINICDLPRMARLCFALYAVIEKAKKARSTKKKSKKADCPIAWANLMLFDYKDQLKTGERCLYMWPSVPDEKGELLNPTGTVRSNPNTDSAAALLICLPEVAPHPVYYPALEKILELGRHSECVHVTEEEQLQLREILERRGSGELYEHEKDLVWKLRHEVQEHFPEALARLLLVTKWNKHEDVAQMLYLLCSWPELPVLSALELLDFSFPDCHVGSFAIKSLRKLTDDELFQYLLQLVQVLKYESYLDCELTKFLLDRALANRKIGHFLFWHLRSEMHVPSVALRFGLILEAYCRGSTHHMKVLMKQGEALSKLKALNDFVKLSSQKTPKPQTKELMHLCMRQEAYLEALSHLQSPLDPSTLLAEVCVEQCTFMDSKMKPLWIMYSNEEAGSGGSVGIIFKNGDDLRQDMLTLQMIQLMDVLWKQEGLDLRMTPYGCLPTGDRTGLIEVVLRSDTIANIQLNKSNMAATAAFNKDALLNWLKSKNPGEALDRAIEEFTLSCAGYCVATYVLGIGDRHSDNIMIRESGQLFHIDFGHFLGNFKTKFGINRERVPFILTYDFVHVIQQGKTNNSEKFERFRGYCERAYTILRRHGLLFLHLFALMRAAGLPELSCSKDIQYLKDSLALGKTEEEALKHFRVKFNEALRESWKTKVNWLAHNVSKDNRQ

[22] = test system: HCT-116; experiment: Induction of cell cycle arrest at G1/G0 phase in human HCT-116 cells assessed as decrease in cyclinD1 expression incubated for 48 hrs by Western blotting analysis; assay type: functional, cell-based; conditions: dose 3-12 µM
[23] = AUC (0 to t) in Sprague-Dawley rat at 5 mg/kg, iv measured upto 24 hrs by LC-MS analysis; assay type: ADME, organism-based; conditions: in vivo
[24] = test system: HCT-116; experiment: Induction of apoptosis in human HCT-116 cells assessed as increased total apoptotic cells at 6 uM incubated for 48 hrs by Annexin V-FITC and propidium iodide staining based flow cytometry analysis (reference value: 4.22 %); assay type: functional

Sequence of Cytochrome P450 2C9 (P11712 whole entry): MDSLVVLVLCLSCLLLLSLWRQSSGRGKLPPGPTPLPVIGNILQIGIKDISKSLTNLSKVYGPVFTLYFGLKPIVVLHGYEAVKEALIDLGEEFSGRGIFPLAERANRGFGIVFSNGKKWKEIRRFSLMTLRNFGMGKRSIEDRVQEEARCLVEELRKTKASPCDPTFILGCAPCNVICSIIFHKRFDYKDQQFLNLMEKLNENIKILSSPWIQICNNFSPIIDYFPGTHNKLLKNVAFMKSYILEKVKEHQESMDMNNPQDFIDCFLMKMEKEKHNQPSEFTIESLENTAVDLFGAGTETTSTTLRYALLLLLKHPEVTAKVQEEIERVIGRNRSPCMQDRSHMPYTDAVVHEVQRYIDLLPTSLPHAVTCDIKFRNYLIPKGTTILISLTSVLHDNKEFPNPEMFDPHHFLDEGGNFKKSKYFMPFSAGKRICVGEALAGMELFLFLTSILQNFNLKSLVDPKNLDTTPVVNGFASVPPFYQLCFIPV
Sequence of Cytochrome P450 3A4 (P08684 whole entry): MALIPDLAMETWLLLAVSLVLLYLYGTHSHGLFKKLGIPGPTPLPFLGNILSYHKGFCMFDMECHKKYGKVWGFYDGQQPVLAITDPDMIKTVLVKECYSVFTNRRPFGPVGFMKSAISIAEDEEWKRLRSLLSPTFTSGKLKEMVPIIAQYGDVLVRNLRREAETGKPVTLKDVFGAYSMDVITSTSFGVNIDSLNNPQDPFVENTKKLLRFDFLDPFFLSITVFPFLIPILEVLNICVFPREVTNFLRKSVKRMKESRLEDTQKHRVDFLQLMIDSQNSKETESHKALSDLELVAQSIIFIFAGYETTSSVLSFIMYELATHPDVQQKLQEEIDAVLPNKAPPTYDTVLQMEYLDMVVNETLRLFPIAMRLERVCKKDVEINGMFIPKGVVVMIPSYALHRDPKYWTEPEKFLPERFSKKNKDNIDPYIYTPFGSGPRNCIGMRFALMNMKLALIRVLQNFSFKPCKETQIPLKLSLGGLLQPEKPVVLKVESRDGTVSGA
Sequence of Cytochrome P450 2C19 (P33261 whole entry): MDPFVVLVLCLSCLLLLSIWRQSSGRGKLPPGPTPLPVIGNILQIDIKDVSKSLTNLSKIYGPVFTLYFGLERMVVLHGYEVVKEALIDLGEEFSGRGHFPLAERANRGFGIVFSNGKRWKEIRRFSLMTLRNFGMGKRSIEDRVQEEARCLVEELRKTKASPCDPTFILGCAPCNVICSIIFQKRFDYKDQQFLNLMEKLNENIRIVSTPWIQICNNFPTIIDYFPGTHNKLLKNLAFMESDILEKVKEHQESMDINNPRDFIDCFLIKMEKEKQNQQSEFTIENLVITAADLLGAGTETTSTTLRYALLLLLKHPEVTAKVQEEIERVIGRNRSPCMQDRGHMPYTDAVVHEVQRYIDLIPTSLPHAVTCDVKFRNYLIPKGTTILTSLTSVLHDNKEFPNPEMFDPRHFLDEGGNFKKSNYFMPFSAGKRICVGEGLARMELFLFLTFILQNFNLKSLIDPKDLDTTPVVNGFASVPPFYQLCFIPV

## Nc1nc2cc(-c3ccc4ncc(N5C[C@@H]6OCCO[C@@H]6C5)nc4c3)ccc2o1
[1]
  IC50: 7.24 µM
[2]
  Activity: Active
[3]
  IC50: > 10 µM
[4]
  IC50: > 10 µM
[5]
  Activity: Active
[6]
  Activity: Toxic
[7]
  IC50: 13.7 µM
[8]
  remaining at 1 h, 5 ug/ml: 82.3%
[9]
  IC50: > 10 µM
[10]
  Activity: Active
[11]
  inhibition: Dose-Dependent Effect
[12]
  half-life: 348 min
[13]
  Activity: 19%
[14]
  inhibition: Dose-Dependent Effect
[15]
  Activity: Toxic
[16]
  Activity: Active
[17]
  Activity: Active
[18]
  Stability: Stable
[19]
  IC50: 601 nM
[20]
  Activity: 24.8%
[21]
  IC50: 111 nM
[22]
  Activity: Dose-Dependent Effect
[23]
  AUC(0-t) at 24 h: 8230 ng·h/mL
[24]
  Activity: 12.31%
